Results as given in patent publication US6979686B1, “Substituted pyrazoles as p38 kinase inhibitors” (Pharmacia Corporation, priority 2001, dated 2005).
Where two headings read alike, the source gives them in different places.

Target: T1, human p38 kinase alpha (Homo sapiens, UniProt Q16539)
T1 construct: GST (N, cleaved yes); made in house; host or cells: E. coli DH10B
Test: p38 kinase in vitro assay, phosphorylation of biotinylated PHAS-I with 32P-ATP
Format: biochemical
Conditions: for IC50: read-out: P38 alpha kinase IC50
Description: The coding region of the human p38a cDNA was obtained by PCR-amplification from RNA isolated from the human monocyte cell line THP.1. […] Random primer, dNTP's and Superscript™ reagents were all purchased from Life-Technologies, Gaithersburg, Mass. The reaction was incubated at 42° C. for 1 hour. Amplification of p38 cDNA was performed by aliquoting 5 μl of the reverse transcriptase reaction into a 100 μl PCR reaction containing the following: 80 μl dH2O, 2 μl 50 mM DNTP's, 1 μl each of forward and reverse primers (50 pmol/μl), 10 μl of 10×buffer and 1 μl Expand™ polymerase (Boehringer Mannheim). The PCR primers incorporated BamHI sites onto the 5′ and 3′ end of the amplified fragment, and were purchased from Genosys. […] The PCR amplification was carried out in a DNA Thermal Cycler (Perkin Elmer) by repeating 30 cycles of 94° C. for 1 minute, 60° C. for 1 minute and 68° C. for 2 minutes. After amplification, excess primers and unincorporated dNTP's were removed from the amplified fragment with a Wizard™ PCR prep (Promega) and digested with BamHI (New England Biolabs). The BamHI digested fragment was ligated into BamHI digested PGEX 2T plasmid DNA (PharmaciaBiotech) using T-4 DNA ligase (New England Biolabs) as described by T. Maniatis, Molecular Cloning: A Laboratory Manual, 2nd ed. […] The ligation reaction was transformed into chemically competent E. coli DH10B cells purchased from Life-Technologies following the manufacturer's instructions. Plasmid DNA was isolated from the resulting bacterial colonies using a Promega Wizard™ miniprep kit.
Expression of Human p38a:
Overnight cultures were grown in-Luria Broth (LB) containing […] ampicillin. The next day, 500 ml of fresh LB was inoculated with 10 ml of overnight culture, and grown in a 2 liter flask at 37° C. with constant shaking until the culture reached an absorbance of 0.8 at 600 nm. Expression of the fusion protein was induced by addition of isopropyl b-D-thiogalactosidse (IPTG) to a final concentration of 0.05 mM. The cultures were shaken for three hours at room temperature, and the cells were harvested by centrifugation. The cell pellets were stored frozen until protein purification.
Purification of p38 Kinase-α:
All chemicals were from Sigma Chemical Co. unless noted. Twenty grams of E. coli cell pellet collected from five 1 L shake flask fermentations was resuspended in a volume of PBS (140 mM NaCl, 2.7 mM KCl, 10 mM Na2HPO4, 1.8 mM KH2PO4, pH 7.3) up to 200 ml. The cell suspension was adjusted to 5 mM DTT with 2 M DTT and then split equally into five 50 ml Falcon conical tubes. The cells were sonnicated (Ultrasonics model W375) with a 1 cm probe for 3×1 minutes (pulsed) on ice. Lysed cell material was removed by centrifugation (12,000×g, 15 minutes) and the clarified supernatant applied to glutathione-sepharose resin (Pharmacia).
Glutathione-sepharose Affinity Chromatography:
The resin was collected by centrifugation (600×g, 5 min) and washed with 2×150 ml PBS/1% Triton X-100, followed by 4×40 ml PBS. To cleave the p38 kinase from the GST-p38 fusion protein, the glutathione-sepharose resin was resuspended in 6 ml PBS containing 250 units thrombin protease (Pharmacia, specific activity>7500 units/mg) and mixed gently for 4 hours at room temperature. The glutathione-sepharose resin was removed by centrifugation (600×g, 5 min) and washed 2×6 ml with PBS. The PBS wash fractions and digest supernatant containing p38 kinase protein were pooled and adjusted to 0.3 mM PMSF.
Mono O Anion Exchange Chromatography:
The thrombin-cleaved p38 kinase was further purified by FPLC-anion exchange chromatography.

[1] = in vitro P38-alpha kinase inhibition

T1 sequence (Q16539 whole entry): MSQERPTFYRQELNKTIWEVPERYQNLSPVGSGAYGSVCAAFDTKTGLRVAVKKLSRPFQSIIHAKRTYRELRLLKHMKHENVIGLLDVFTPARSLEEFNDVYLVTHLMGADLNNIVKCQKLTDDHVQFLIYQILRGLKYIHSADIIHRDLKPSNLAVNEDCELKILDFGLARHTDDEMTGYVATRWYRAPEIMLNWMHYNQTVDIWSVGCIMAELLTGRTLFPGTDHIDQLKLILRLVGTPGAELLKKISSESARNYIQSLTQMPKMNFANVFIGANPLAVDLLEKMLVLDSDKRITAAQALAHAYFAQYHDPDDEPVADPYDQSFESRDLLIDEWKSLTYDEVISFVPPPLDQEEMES

IC50 [1] [nM] | IC50 (in vitro P38-alpha kinase) [nM] | Compound | further results
2330 |  | CC(NC(=O)c1cc(F)c(F)cc1F)c1[nH]nc(-c2ccc(F)cc2)c1-c1ccncc1 (stereo not drawn) [Example B-0698] | 
490 |  | CC(NS(=O)(=O)c1ccc(Cl)c(Cl)c1)c1[nH]nc(-c2ccc(F)cc2)c1-c1ccncc1 (stereo not drawn) [Example B-0642] | 
 | < 100 | O=S(=O)(NCc1[nH]nc(-c2ccc(F)cc2)c1-c1ccncc1)c1ccc(Br)cc1 [Example B-0224] | 
1000 |  | O=C(Cc1cccs1)NC(Cc1ccccc1)c1[nH]nc(-c2ccc(F)cc2)c1-c1ccncc1 (stereo not drawn) [Example B-0790] | 
22000 |  | O=C(Nc1ccccc1)NC(Cc1ccccc1)c1[nH]nc(-c2ccc(F)cc2)c1-c1ccncc1 (stereo not drawn) [Example B-0782] | 
23000 |  | O=C(Nc1cccc(F)c1)NC(Cc1ccccc1)c1[nH]nc(-c2ccc(F)cc2)c1-c1ccncc1 (stereo not drawn) [Example B-0785] | 
1890 |  | CNC(=O)CCC(NC(=O)Nc1ccc(OC)cc1OC)c1[nH]nc(-c2ccc(F)cc2)c1-c1ccncc1 (stereo not drawn) [Example B-0884] | 
1500 |  | CN(C)C(=O)NC(Cc1ccccc1)c1[nH]nc(-c2ccc(F)cc2)c1-c1ccncc1 (stereo not drawn) [Example B-0774] | 
1040 |  | CC(=O)OCC(=O)NC(Cc1ccccc1)c1[nH]nc(-c2ccc(F)cc2)c1-c1ccncc1 (stereo not drawn) [Example B-0797] | 
360 |  | CC(NS(=O)(=O)c1cccc2c(N(C)C)cccc12)c1[nH]nc(-c2ccc(F)cc2)c1-c1ccncc1 (stereo not drawn) [Example B-0621] | 
< 100 |  | CC(NS(=O)(=O)Cc1ccccc1[N+](=O)[O-])c1[nH]nc(-c2ccc(F)cc2)c1-c1ccncc1 (stereo not drawn) [Example B-0619] | 
33000 |  | COc1ccc(NC(=O)NC(Cc2ccccc2)c2[nH]nc(-c3ccc(F)cc3)c2-c2ccncc2)c(OC)c1 (stereo not drawn) [Example B-0789] | 
57 |  | CC(=O)NC(Cc1ccccc1)c1[nH]nc(-c2ccc(F)cc2)c1-c1ccncc1 (stereo not drawn) [Example B-0803] | 
540 |  | O=S(=O)(NC(Cc1ccccc1)c1[nH]nc(-c2ccc(F)cc2)c1-c1ccncc1)c1ccc(F)cc1F (stereo not drawn) [Example B-0757] | 
 | 660 | O=C(NCCCc1[nH]nc(-c2ccc(F)cc2)c1-c1ccncc1)c1cccc2ccccc12 [Example B-1329] | 
 | 450 | O=C(NCCCc1[nH]nc(-c2ccc(F)cc2)c1-c1ccncc1)c1cccc(Cl)c1Cl [Example B-1333] | 
150 |  | CNC(=O)CCC(NC(=O)NC)c1[nH]nc(-c2ccc(F)cc2)c1-c1ccncc1 (stereo not drawn) [Example B-0880] | 
24000 |  | COc1ccc(NC(=O)NC(Cc2ccccc2)c2[nH]nc(-c3ccc(F)cc3)c2-c2ccncc2)cc1 (stereo not drawn) [Example B-0786] | 
 | 120 | O=C(NCCCc1[nH]nc(-c2ccc(F)cc2)c1-c1ccncc1)c1ccc(Cl)cc1 [Example B-1322] | 
 | < 100 | O=C(OCc1ccccc1)N1CCC(c2[nH]nc(-c3ccc(F)cc3)c2-c2ccncc2)CC1 [Example B-1428] | 
2540 |  | CC(NC(=O)NC(C)c1[nH]nc(-c2ccc(F)cc2)c1-c1ccncc1)c1ccccc1 (stereo not drawn) [Example B-0414] | 
 | 70 | O=C(NCCCc1[nH]nc(-c2ccc(F)cc2)c1-c1ccncc1)c1ccccc1Br [Example B-1355] | 

More lines, now with the values behind:

Compound | IC50 [1] [nM] | IC50 (in vitro P38-alpha kinase) [nM] | further results
CC(=O)OCC(=O)NCCc1[nH]nc(-c2ccc(F)cc2)c1-c1ccncc1 [Example B-0981] |  |  | P38 alpha kinase % inhib @ conc. (uM) (@ 1.0 uM): 62.0% @
O=C(NCCCc1[nH]nc(-c2ccc(F)cc2)c1-c1ccncc1)c1ccc(F)cc1C(F)(F)F [Example B-1340] |  | 43 | 
O=S(=O)(C=Cc1ccccc1)NCCCc1[nH]nc(-c2ccc(F)cc2)c1-c1ccncc1 [Example B-1193] |  |  | P38 alpha kinase % inhib @ conc. (uM) (@ 1.0 uM): 69.0% @
Cc1c(-c2ccncc2)c(-c2ccc(F)cc2)nn1CC(=O)N1CCOCC1 [Example B-2366] |  |  | P38 alpha kinase % inhib @ conc. (@ 10.0 uM): 70.0% @
Cc1cccc(C(=O)N2CCC(c3[nH]nc(-c4ccc(F)cc4)c3-c3ccncc3)CC2)c1 [Example B-1395] |  | 1480 | 
Cc1c(-c2ccncc2)c(-c2ccc(F)cc2)nn1CC(=O)NC1CCN(Cc2ccccc2)CC1 [Example B-2332] |  |  | P38 alpha kinase % inhib @ conc. (@ 10.0 uM): 70.0% @
O=C(NCCCc1[nH]nc(-c2ccc(F)cc2)c1-c1ccncc1)c1cnc2ccccc2n1 [Example B-1189] |  |  | P38 alpha kinase % inhib @ conc. (uM) (@ 1.0 uM): 68.0% @
O=S(=O)(NCCCc1[nH]nc(-c2ccc(F)cc2)c1-c1ccncc1)c1ccc(-c2ccccn2)s1 [Example B-1288] |  | 150 | 
Cc1c(-c2ccncc2)c(-c2ccc(F)cc2)nn1CC(=O)NC1CCN(CCc2c[nH]c3ccccc23)CC1 [Example B-2355] |  |  | P38 alpha kinase % inhib @ conc. (@ 10.0 uM): 84.0% @
Cc1c(-c2ccncc2)c(-c2ccc(F)cc2)nn1CC(=O)NCC1CC1 [Example B-2276] |  | 11500 | 
CN(C)S(=O)(=O)NCCCc1[nH]nc(-c2ccc(F)cc2)c1-c1ccncc1 [Example B-1292] |  | 10 | 
O=C(NCCCc1[nH]nc(-c2ccc(F)cc2)c1-c1ccncc1)c1cccc(C(F)(F)F)c1F [Example B-1339] |  | 120 | 
N#Cc1ccccc1S(=O)(=O)N1CCC(c2[nH]nc(-c3ccc(F)cc3)c2-c2ccncc2)CC1 [Example B-1461] |  | 400 | 
Cc1ccc(S(C)(=O)=O)cc1S(=O)(=O)NCCc1[nH]nc(-c2ccc(F)cc2)c1-c1ccncc1 [Example B-1119] | 350 |  | 
O=C(NCCCc1[nH]nc(-c2ccc(F)cc2)c1-c1ccncc1)Nc1ccc(F)cc1 [Example B-1211] |  |  | P38 alpha kinase % inhib @ conc. (@ 1.0 uM): 88.0% @
Cc1c(-c2ccncc2)c(-c2ccc(F)cc2)nn1CC(=O)NC1CCN(Cc2ccccc2)C1 (stereo not drawn) [Example B-2338] |  |  | P38 alpha kinase % inhib @ conc. (@ 10.0 uM): 73.0% @
COc1ccc(S(=O)(=O)NCCCc2[nH]nc(-c3ccc(F)cc3)c2-c2ccncc2)cc1 [Example B-1202] |  |  | P38 alpha kinase % inhib @ conc. (@ 1.0 uM): 71.0% @
CC(=O)NCCc1[nH]nc(-c2ccc(F)cc2)c1-c1ccncc1 [Example B-0987] |  |  | P38 alpha kinase % inhib @ conc. (uM) (@ 1.0 uM): 78.0% @
Cc1c(-c2ccncc2)c(-c2ccc(F)cc2)nn1CC(=O)Nc1ccc(-n2ccc(C(F)(F)F)n2)cc1 [Example B-2455] |  |  | P38 alpha kinase IC50, uM or % inhib @ conc. (uM): % inhib (@ 10.0 uM): 87.0% @
CCCS(=O)(=O)NCCCc1[nH]nc(-c2ccc(F)cc2)c1-c1ccncc1 [Example B-1198] |  |  | P38 alpha kinase % inhib @ conc. (@ 1.0 uM): 92.0% @
O=C(c1ccco1)N1CCC(c2[nH]nc(-c3ccc(F)cc3)c2-c2ccncc2)CC1 [Example B-1383] |  | 1.2 | 
O=S(=O)(NCCCc1[nH]nc(-c2ccc(F)cc2)c1-c1ccncc1)c1cccc2cccnc12 [Example B-1248] |  | < 100 | 
O=C(c1cc(Cl)cc(Cl)c1)N1CCC(c2[nH]nc(-c3ccc(F)cc3)c2-c2ccncc2)CC1 [Example B-1419] |  | 300 | 
CC(C)S(=O)(=O)NCCCc1[nH]nc(-c2ccc(F)cc2)c1-c1ccncc1 [Example B-1192] |  |  | P38 alpha kinase % inhib @ conc. (uM) (@ 1.0 uM): 84.0% @
O=C(NCCCc1[nH]nc(-c2ccc(F)cc2)c1-c1ccncc1)c1ccc(F)c(F)c1F [Example B-1174] |  |  | P38 alpha kinase % inhib @ conc. (uM) (@ 1.0 uM): 80.0% @
O=S(=O)(c1cccc2cnccc12)N1CCC(c2[nH]nc(-c3ccc(F)cc3)c2-c2ccncc2)CC1 [Example B-1443] |  | 14 | 
O=C(NCCc1[nH]nc(-c2ccc(F)cc2)c1-c1ccncc1)c1ccc(C(F)(F)F)cc1F [Example B-1136] | 1170 |  | 
Cc1ccc(C(=O)N2CCC(c3[nH]nc(-c4ccc(F)cc4)c3-c3ccncc3)CC2)cc1 [Example B-1371] |  | 60 | 
CCCCOc1ccc(S(=O)(=O)NCCCc2[nH]nc(-c3ccc(F)cc3)c2-c2ccncc2)cc1 [Example B-1261] |  | 740 | 
